Laboratory results from patent publication US9084734B2, “Peptide personal care compositions and methods for their use” (Danisco US Inc., priority 2005, dated 2015).
Bridge positions count the residues as written; N and C are the ends. Peptide text beside a SMILES is read from it.

Target: T1, Human VEGF165 (Homo sapiens, UniProt P15692)
T1 construct: purchased Biosource
T1 sequence (P15692 27-191 isoform P15692-4): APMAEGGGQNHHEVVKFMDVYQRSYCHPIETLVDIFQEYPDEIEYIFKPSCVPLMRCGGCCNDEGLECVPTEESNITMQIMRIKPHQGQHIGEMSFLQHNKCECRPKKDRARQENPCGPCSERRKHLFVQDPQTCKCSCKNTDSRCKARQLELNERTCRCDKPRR
Assay: BIAcore binding analysis of VEGF-binding peptides (surface plasmon resonance)
Settings: 1:1 Langmuir binding; 1000 RU VEGF, 850 RU TNFα
Experimental: FIG. 3 provides results of a BIACORE binding analysis of VEGF binding peptides. Binding curves were obtained as described in the Examples. Data were fit to a two state reaction model with conformation change: Analyte (A) binds to ligand (B) to form complex AB.
In this Example, experiments conducted to assess the affinities of the peptides for VEGF are described. Affinities of the peptides for VEGF were measured using a BIAcore™-3000 surface plasmon resonance system (Biacore). A CM5 sensor chip was conditioned with 50 mM NaOH, 0.1% HCl, 0.1% SDS, and 0.08% H3PO4, and activated for covalent coupling of VEGF using N-ethyl-N′-(3-dimethylaminopropyl)-carbodiimide hydrochloride (EDC) and N-hydroxysuccinimide (NHS) according to the supplier's instructions (Biacore). Human VEGF165 (Biosource) was diluted to 5 μg/ml in 20 mM sodium acetate, pH 4.8 and injected at a flow rate of 2 μl/min to achieve approximately 1000 to 6000 response units (RU) of coupled protein. TNF-alpha (human TNF-alpha, Biosource, Int., Camarillo, Calif.) was similarly coupled to the CM5 sensor chip to approximately 850 to 3500 RU in the reference lane. A solution of 1 M ethanolamine was injected as a blocking agent. In some experiments, an additional solution of EDC and NHS were injected to improve baseline stability and a solution of 1 M ethanolamine injected as a blocking agent. The reference lane was activated with EDC and NHS and blocked with ethanolamine.
Peptides were synthesized using standard FMOC chemistry, purified by reverse phase HPLC to >95% purity (SynPep), and stored at 10 mg/mL in DMSO. For kinetic measurements, twofold serial diluted peptides in HBS-EP buffer, 0.01 M HEPES pH 7.4, 0.15 M NaCl, 3 mM EDTA, 0.005% Surfactant P20 (Biacore), were injected at 25° C. at a flow rate of 20 μL/min. Two-fold serial diluted DMSO samples and buffer samples were also injected for background subtraction. Kinetic parameters were calculated using BIAevaluation 3.1 software.

Kd: 223 nM | kd1: 0.167 s⁻¹
SMILES: CC[C@H](C)[C@@H]1NC(=O)[C@H](CC(=O)O)NC(=O)[C@@H](NC(=O)[C@H](CC(N)=O)NC(=O)[C@@H]2CCCN2C(=O)[C@H](CCC(=O)O)NC(=O)[C@@H](N)C(C)C)CSSC[C@@H](C(=O)N[C@@H](Cc2ccccc2)C(=O)N[C@@H](CCC(=O)O)C(=O)N[C@@H](CCCNC(=N)N)C(=O)N[C@@H](CC(C)C)C(N)=O)NC(=O)[C@H](CCC(=O)O)NC(=O)[C@H](Cc2c[nH]c3ccccc23)NC(=O)[C@H](CCC(=O)O)NC(=O)[C@H](Cc2c[nH]c3ccccc23)NC(=O)[C@H](CCSC)NC(=O)[C@H](C(C)C)NC(=O)[C@H](Cc2c[nH]cn2)NC1=O [v114, reference compound] (H-VEPNCDIHVMWEWECFERL-NH2; disulfide 5-15; N-terminus and C-terminus assumed)
